# Data reported in the NIST ThermoML archive (doi:10.1016/j.jct.2011.05.018).
# Numbers after ± are expanded uncertainties.
# Assay: xn = mol fraction of the nth substance listed
# Details: 101 kPa, Liquid, x2 = 0; for viscosity: Capillary tube (Ostwald / Ubbelohde) method; for speed of sound: Pulse-echo method; for mass density: Pycnometric method
Compound,viscosity (303.15 K) [mPa·s],speed of sound (303.15 K) [m/s],mass density (303.15 K) [kg/m3],viscosity (308.15 K) [mPa·s],speed of sound (308.15 K) [m/s],mass density (308.15 K) [kg/m3],viscosity (313.15 K) [mPa·s],speed of sound (313.15 K) [m/s],mass density (313.15 K) [kg/m3],viscosity (318.15 K) [mPa·s],speed of sound (318.15 K) [m/s],mass density (318.15 K) [kg/m3]
Cc1ccccc1O [2-methylphenol] + COc1ccc(C=O)cc1,7.479 ± 0.053,1485.3 ± 1.6,1036.2 ± 10,5.963 ± 0.043,1466.8 ± 1.6,1031 ± 10,4.238 ± 0.032,1452.1 ± 1.6,1026 ± 10,2.215 ± 0.019,1437.1 ± 1.6,1021.1 ± 10
Cc1ccc(O)cc1 [4-methylphenol] + COc1ccc(C=O)cc1,9.54 ± 0.11,1468.4 ± 2.3,1026.5 ± 10,8.119 ± 0.09,1455.8 ± 2.3,1022 ± 10,6.741 ± 0.076,1443.7 ± 2.3,1018.1 ± 10,5.469 ± 0.062,1432.7 ± 2.3,1013.9 ± 10
